For this experiment, the target named is T1, Human chemokine receptor CXCR4 (Homo sapiens, UniProt P61073).
T1 construct: expressed in transfected cells; host or cells: Chem-1 cells (membranes)
Kind of experiment: Human CXCR4/125I-SDF-1α binding inhibition assay. Here is the method: Non-specific binding was estimated in the presence of 30 nM SDF-1α.

The record followed here is patent US11771736B2, “Composition comprising a therapeutic agent and a CXCR4 selective antagonist and methods for using the same” (Mainline Biosciences (Shanghai) Co., Ltd., priority 2017, dated 2023).

Numbered stars: 1 amine (or outer) side, 2 acyl side, 3 side chain; on linkers, the order of the positions; unused ones are H or OH. Bridge positions count the residues as written; N and C are the ends. Square brackets hold non-standard residues; d marks the D form. Peptide text beside a SMILES is read from it. * marks the point of attachment. 2Nal = N[C@@H](Cc1ccc2ccccc2c1)C(=O)O; oXylylene = c1ccc(C[*:2])c(C[*:1])c1; Lys(iPr) = CC(C)NCCCC[C@H](N)C(=O)O; Bz = O=C(c1ccccc1)*

T1 sequence (P61073 whole entry): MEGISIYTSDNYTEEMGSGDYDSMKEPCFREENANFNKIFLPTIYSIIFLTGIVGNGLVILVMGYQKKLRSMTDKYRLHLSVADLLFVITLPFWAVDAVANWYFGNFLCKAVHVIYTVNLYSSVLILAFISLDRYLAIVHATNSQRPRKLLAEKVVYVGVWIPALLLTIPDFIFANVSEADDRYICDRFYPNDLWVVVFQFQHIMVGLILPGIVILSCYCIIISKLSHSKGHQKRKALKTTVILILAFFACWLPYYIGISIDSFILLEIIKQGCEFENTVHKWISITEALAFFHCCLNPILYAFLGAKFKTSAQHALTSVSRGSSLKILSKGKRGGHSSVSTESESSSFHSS

On to `CC(C)NCCCC[C@H](NC(=O)[C@@H]1CSCc2ccccc2CSC[C@H](NC(=O)c2ccccc2)C(=O)N[C@@H](Cc2ccc(O)cc2)C(=O)N[C@@H](CCCCNC(C)C)C(=O)N[C@H](CCCNC(=N)N)C(=O)N[C@@H](Cc2ccc3ccccc3c2)C(=O)NCC(=O)N1)C(=O)NCC(N)=O` [Example 20] (Bz-CY[Lys(iPr)][dR][2Nal]GC[Lys(iPr)]G-NH2; linker 1-7 via oXylylene), for which the IC50 stood at 1.3 nM and the Kb was determined as 0.39 nM.
